Test results taken from ChEMBL document CHEMBL5727111, “Pyrrolidinyl urea, pyrrolidinyl thiourea and pyrrolidinyl guanidine compounds as TrkA kinase inhibitors” (2019).

target: High affinity nerve growth factor receptor (Homo sapiens, UniProt P04629); assay: TrkA Omnia Assay: Trk enzymatic selectivity was assessed using Omnia Kinase Assay reagents from Invitrogen Corp. Enzyme (TrkA from Invitrogen Corp.) and test compound (various concentrations) were incubated for 10 minutes at ambient temperature in a 384-well white polypropylene plate (Nunc catalog#267462). Omnia Tyr Peptide #4, as well as ATP, were then added to the plate. Final concentrations were as follows: 20 nM enzyme, 500 μM of ATP, 10 μM peptide substrate. The assay buffer consisted of 25 mM MOPS pH 7.5, 0.005% (v/v) Triton X-100 and 5 mM MgCl2. The production of phosphorylated peptide was monitored continuously for 70 minutes using a Molecular Devices FlexStation II384 microplate reader (excitation=360 nm; emission=485 nm). Initial rates were calculated from the progress curves. IC50 values were calculated from these rates using either a 4 or 5-parameter logistic curve fit.
Sequence (P04629 whole entry): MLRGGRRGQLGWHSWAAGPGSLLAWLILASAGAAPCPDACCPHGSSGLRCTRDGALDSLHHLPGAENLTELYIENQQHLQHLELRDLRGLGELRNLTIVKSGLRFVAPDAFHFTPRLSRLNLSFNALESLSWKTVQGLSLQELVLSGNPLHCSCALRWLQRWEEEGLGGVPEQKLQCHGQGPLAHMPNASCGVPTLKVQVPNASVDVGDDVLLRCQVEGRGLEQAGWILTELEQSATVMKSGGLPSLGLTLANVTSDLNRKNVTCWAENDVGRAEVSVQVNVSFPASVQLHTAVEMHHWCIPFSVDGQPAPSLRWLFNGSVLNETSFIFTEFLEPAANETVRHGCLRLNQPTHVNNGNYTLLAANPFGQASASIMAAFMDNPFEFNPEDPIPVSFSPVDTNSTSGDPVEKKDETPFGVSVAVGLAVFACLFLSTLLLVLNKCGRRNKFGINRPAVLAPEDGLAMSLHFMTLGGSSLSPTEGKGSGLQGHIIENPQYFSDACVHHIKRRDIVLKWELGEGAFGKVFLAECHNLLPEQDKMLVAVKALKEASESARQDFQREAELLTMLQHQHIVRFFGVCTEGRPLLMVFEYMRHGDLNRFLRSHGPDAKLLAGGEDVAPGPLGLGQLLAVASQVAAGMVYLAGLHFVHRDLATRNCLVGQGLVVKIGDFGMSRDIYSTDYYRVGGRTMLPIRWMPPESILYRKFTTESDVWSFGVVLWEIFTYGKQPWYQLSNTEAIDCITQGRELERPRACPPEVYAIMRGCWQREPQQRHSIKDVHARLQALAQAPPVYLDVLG

IC50 [nM] | SMILES
< 100 | COCCN1C[C@@H](NC(=O)Nc2c(C)c(-c3cnn(C)c3)nn2-c2ccccc2)[C@H](c2cccc(C#N)c2)C1
< 100 | COCCN1C[C@@H](NC(=O)Nc2c(C)c(-c3cnn(C)c3)nn2-c2cccc(F)c2)[C@H](c2ccc(F)cc2)C1
< 100 | COCCN1C[C@@H](NC(=O)Nc2c(C)c(-c3cnn(C)c3)nn2-c2ccccc2)[C@H](c2ccccc2)C1
< 100 | COCCN1C[C@@H](NC(=O)Nc2c(Cl)c(-c3cnn(C)c3)nn2-c2ccccc2)[C@H](c2cncc(F)c2)C1
< 100 | COCCN1C[C@@H](NC(=O)Nc2c(C)c(-c3cnn(C)c3)nn2-c2ccccc2)[C@H](c2ccc(F)cn2)C1 (relative stereo)
< 100 | COCCN1C[C@@H](NC(=O)Nc2c(C)c(-c3cnn(C)c3)nn2-c2ccccc2)[C@H](c2ccc(F)c(F)c2)C1
< 100 | COCCN1C[C@@H](NC(=O)Nc2c(C)c(-c3cnn(C)c3)nn2-c2ccccc2)[C@H](c2ccc(C#N)cc2)C1
< 100 | COCCN1C[C@@H](NC(=O)Nc2c(C)c(-c3cnn(C)c3)nn2-c2ccccc2)[C@H](c2csnn2)C1 (relative stereo)

Further lines, the compound ahead of its results:

SMILES | IC50 [nM]
COCCN1C[C@@H](NC(=O)Nc2c(C)c(-c3cnn(C)c3)nn2-c2cccc(Cl)c2)[C@H](c2ccc(F)c(F)c2)C1 | < 100
O=C(Nc1c2c(nn1-c1ccccc1)CCC2)N[C@@H]1CN(CC(F)F)C[C@H]1c1ccc(F)cc1 (relative stereo) | < 100
COCCN1C[C@@H](NC(=O)Nc2c(C)c(-c3cnn(C)c3)nn2-c2cccc(Cl)c2F)[C@H](c2ccc(F)c(F)c2)C1 | < 100
COCCN1C[C@@H](NC(=O)Nc2c(C)c(-c3cnn(C)c3)nn2-c2ccccc2F)[C@H](c2ccc(F)cc2)C1 | < 100
Cc1c(-c2ccc(=O)n(C)c2)nn(-c2ccccc2)c1NC(=O)N[C@H]1CN(CC(F)(F)F)C[C@@H]1c1ccccc1 | < 100
Cn1cc(-c2nn(-c3ccccc3)c(NC(=O)N[C@H]3CN(CC(F)(F)F)C[C@@H]3c3ccccc3)c2Cl)cn1 | < 100
CCOc1nn(-c2ccccc2)c(NC(=O)N[C@@H]2CN(CCOC)C[C@H]2c2cncc(Cl)c2)c1C (relative stereo) | < 100
COCCN1C[C@@H](NC(=O)Nc2c(Br)c(C)nn2-c2ccccc2)[C@H](c2cc(F)cc(F)c2)C1 | < 100
COCCN1C[C@@H](NC(=O)Nc2c(C)c(-c3cnn(C)c3)nn2-c2ccc(F)c(Cl)c2)[C@H](c2ccc(F)c(F)c2)C1 | < 100
CCOc1nn(-c2ccccc2)c(NC(=O)N[C@H]2CN(CC(F)(F)F)C[C@@H]2c2cccc(F)c2)c1C | < 100
COCCN1C[C@@H](NC(=O)Nc2c(Cl)c(C)nn2-c2ccccc2)[C@H](c2cc(F)cc(F)c2)C1 | < 100
COc1ncccc1N1C[C@@H](NC(=O)Nc2c(C)c(-c3cnn(C)c3)nn2-c2ccccc2)[C@H](c2ccccc2)C1 | < 100
COCCN1C[C@@H](NC(=O)Nc2c(Br)c(C)nn2-c2ccccc2)[C@H](c2ccc(F)cn2)C1 (relative stereo) | < 100
COCCN1C[C@@H](NC(=O)Nc2cc(-c3ccc(C(=O)N(C)C)cc3)nn2C)[C@H](c2ccc(F)c(F)c2)C1 | < 100
COCCN1C[C@@H](NC(=O)Nc2c(SC)c(C)nn2-c2ccccc2)[C@H](c2ccc(F)c(F)c2)C1 | < 100
